Measurements: ChEMBL document CHEMBL4507298 (2021)

Experiments:
Thromboxane A2 receptor = Thromboxane A2 receptor (Homo sapiens, UniProt P21731); assay: Binding assay (TBXA2R)
[1] = biological target: Sodium-dependent serotonin transporter (Homo sapiens) (UniProt P31645); assay: 5-HT transporter (h) CEREP ligand profiling; settings: Compound concentration 10.0 uM
[2] = biological target: T1, 5-hydroxytryptamine receptor 3A (Homo sapiens) (UniProt P46098); assay: 5-HT3 (h) CEREP ligand profiling; settings: Compound concentration 10.0 uM
T1 sequence (whole entry): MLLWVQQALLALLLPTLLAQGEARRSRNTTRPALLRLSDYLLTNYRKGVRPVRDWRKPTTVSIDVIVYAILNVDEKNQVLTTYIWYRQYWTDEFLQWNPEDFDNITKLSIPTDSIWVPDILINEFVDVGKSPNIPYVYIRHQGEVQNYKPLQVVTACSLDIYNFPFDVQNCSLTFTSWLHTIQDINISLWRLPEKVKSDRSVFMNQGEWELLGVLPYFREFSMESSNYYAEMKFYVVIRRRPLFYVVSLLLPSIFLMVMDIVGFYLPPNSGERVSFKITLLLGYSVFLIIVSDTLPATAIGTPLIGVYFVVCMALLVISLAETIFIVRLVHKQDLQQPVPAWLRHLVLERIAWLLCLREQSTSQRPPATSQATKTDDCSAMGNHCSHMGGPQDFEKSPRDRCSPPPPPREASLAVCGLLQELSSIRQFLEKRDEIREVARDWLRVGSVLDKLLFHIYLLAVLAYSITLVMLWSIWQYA

[3] = biological target: Beta-1 adrenergic receptor (Homo sapiens) (UniProt P08588); assay: beta 1 (h) CEREP ligand profiling; settings: Compound concentration 10.0 uM
[4] = biological target: Prostaglandin G/H synthase 2 (Homo sapiens) (UniProt P35354); assay: COX2 (h) CEREP ligand profiling; settings: Compound concentration 10.0 uM
[5] = biological target: Growth hormone secretagogue receptor type 1 (Homo sapiens) (UniProt Q92847); assay: Ghrelin (h) (GHS) CEREP ligand profiling; settings: Compound concentration 10.0 uM
[6] = Glycine (strychnine-insensitive) CEREP ligand profiling; settings: Compound concentration 10.0 uM
[7] = biological target: T2, Muscarinic acetylcholine receptor M2 (Homo sapiens) (UniProt P08172); assay: M2 (h) CEREP ligand profiling; settings: Compound concentration 10.0 uM
T2 sequence (whole entry): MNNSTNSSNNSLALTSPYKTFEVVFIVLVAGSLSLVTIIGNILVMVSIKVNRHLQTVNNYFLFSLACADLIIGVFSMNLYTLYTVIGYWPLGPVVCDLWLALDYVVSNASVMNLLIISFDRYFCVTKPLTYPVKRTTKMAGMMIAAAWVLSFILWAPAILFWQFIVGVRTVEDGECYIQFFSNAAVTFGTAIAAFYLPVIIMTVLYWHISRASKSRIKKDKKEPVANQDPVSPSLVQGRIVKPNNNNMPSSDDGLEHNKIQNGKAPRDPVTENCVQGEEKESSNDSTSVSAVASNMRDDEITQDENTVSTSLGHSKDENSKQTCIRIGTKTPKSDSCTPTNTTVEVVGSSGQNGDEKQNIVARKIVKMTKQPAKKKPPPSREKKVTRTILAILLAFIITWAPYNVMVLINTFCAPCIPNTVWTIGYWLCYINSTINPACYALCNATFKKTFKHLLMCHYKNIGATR

[8] = biological target: Neuronal acetylcholine receptor; alpha4/beta2 (Homo sapiens) (UniProt P17787+P43681); assay: N (neuronal) (alpha -BGTX-insensitive) (alpha 4 beta 2) CEREP ligand profiling; format: protein-complex assay; settings: Compound concentration 10.0 uM
[9] = biological target: Phosphodiesterase 4 (Rattus norvegicus) (UniProt P14270+P14646+P14644+P54748); assay: Rolipram CEREP ligand profiling; format: protein assay; settings: Compound concentration 10.0 uM
[10] = biological target: NUAK family SNF1-like kinase 1 (Homo sapiens) (UniProt O60285); settings: Compound concentration 1000.0 nM
[11] = biological target: Dual specificity protein kinase CLK1 (Homo sapiens) (UniProt P49759); settings: Compound concentration 1000.0 nM
[12] = biological target: Receptor tyrosine-protein kinase erbB-3 (Homo sapiens) (UniProt P21860); settings: Compound concentration 1000.0 nM
[13] = tested on: Receptor-type tyrosine-protein kinase FLT3 (Homo sapiens), P36888 [UNDEFINED MUTATION]; settings: Compound concentration 1000.0 nM
[14] = biological target: Vascular endothelial growth factor receptor 3 (Homo sapiens) (UniProt P35916); settings: Compound concentration 1000.0 nM
[15] = biological target: G protein-coupled receptor kinase 3 (Homo sapiens) (UniProt P35626); settings: Compound concentration 1000.0 nM
[16] = biological target: Interleukin-1 receptor-associated kinase 4 (Homo sapiens) (UniProt Q9NWZ3); settings: Compound concentration 1000.0 nM
[17] = biological target: Tyrosine-protein kinase JAK1 (Homo sapiens) (UniProt P23458); settings: Compound concentration 1000.0 nM
[18] = tested on: Mast/stem cell growth factor receptor Kit (Homo sapiens), P10721 [D816H]; settings: Compound concentration 1000.0 nM
[19] = biological target: MAP/microtubule affinity-regulating kinase 3 (Homo sapiens) (UniProt P27448); settings: Compound concentration 1000.0 nM
[20] = biological target: Dual specificity mitogen-activated protein kinase kinase 7 (Homo sapiens) (UniProt O14733); settings: Compound concentration 1000.0 nM
[21] = biological target: Serine/threonine-protein kinase 38-like (Homo sapiens) (UniProt Q9Y2H1); settings: Compound concentration 1000.0 nM
[22] = biological target: Serine/threonine-protein kinase Nek11 (Homo sapiens) (UniProt Q8NG66); settings: Compound concentration 1000.0 nM
[23] = biological target: Serine/threonine-protein kinase Nek4 (Homo sapiens) (UniProt P51957); settings: Compound concentration 1000.0 nM
[24] = biological target: Serine/threonine-protein kinase NLK (Homo sapiens) (UniProt Q9UBE8); settings: Compound concentration 1000.0 nM
[25] = tested on: Phosphatidylinositol 4,5-bisphosphate 3-kinase catalytic subunit alpha isoform (Homo sapiens), P42336 [I800L]; settings: Compound concentration 1000.0 nM
[26] = tested on: Proto-oncogene tyrosine-protein kinase receptor Ret (Homo sapiens), P07949 [M918T]; settings: Compound concentration 1000.0 nM
[27] = biological target: STE20-like serine/threonine-protein kinase (Homo sapiens) (UniProt Q9H2G2); settings: Compound concentration 1000.0 nM
[28] = biological target: Tyrosine-protein kinase SYK (Homo sapiens) (UniProt P43405); settings: Compound concentration 1000.0 nM
[29] = biological target: Serine/threonine-protein kinase 32A (Homo sapiens) (UniProt Q8WU08); settings: Compound concentration 1000.0 nM
[30] = biological target: Mu-type opioid receptor (Homo sapiens) (UniProt P35372); settings: Compound concentration 10.0 uM
[31] = biological target: Urotensin-2 receptor (Homo sapiens) (UniProt Q9UKP6); assay: UT (h) CEREP ligand profiling; settings: Compound concentration 10.0 uM

Chain of Proto-oncogene tyrosine-protein kinase receptor Ret (Homo sapiens), P07949 [M918T] (P07949 whole entry M918T): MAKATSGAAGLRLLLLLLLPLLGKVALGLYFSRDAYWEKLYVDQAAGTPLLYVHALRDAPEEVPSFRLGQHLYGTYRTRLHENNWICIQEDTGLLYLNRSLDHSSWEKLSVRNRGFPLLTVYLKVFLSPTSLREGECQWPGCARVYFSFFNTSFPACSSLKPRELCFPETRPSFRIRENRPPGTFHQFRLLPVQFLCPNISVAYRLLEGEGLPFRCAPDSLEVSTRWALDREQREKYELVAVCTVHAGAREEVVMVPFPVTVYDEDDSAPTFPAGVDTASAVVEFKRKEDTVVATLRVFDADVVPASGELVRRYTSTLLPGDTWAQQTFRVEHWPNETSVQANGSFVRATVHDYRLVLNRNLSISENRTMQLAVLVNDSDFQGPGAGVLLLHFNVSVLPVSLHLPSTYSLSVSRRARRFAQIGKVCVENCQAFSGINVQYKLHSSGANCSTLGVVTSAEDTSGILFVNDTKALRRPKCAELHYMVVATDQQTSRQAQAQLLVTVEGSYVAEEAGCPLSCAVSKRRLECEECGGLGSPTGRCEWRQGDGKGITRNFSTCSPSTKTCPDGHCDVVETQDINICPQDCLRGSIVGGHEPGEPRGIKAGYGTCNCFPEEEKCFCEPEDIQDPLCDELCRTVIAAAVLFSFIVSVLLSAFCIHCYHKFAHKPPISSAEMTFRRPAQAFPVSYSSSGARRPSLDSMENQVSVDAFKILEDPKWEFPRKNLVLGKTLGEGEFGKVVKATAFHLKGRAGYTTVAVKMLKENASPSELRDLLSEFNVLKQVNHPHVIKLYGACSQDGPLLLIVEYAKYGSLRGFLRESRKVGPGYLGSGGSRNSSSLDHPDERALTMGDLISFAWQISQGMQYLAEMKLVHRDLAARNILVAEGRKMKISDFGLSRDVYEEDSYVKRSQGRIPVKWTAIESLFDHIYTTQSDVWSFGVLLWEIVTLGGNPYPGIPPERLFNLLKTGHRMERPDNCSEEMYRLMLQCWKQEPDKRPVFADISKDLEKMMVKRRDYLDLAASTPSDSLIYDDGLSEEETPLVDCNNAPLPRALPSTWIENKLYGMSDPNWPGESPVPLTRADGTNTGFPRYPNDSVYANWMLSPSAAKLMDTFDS
Chain of Serine/threonine-protein kinase Nek11 (Homo sapiens) (Q8NG66 whole entry): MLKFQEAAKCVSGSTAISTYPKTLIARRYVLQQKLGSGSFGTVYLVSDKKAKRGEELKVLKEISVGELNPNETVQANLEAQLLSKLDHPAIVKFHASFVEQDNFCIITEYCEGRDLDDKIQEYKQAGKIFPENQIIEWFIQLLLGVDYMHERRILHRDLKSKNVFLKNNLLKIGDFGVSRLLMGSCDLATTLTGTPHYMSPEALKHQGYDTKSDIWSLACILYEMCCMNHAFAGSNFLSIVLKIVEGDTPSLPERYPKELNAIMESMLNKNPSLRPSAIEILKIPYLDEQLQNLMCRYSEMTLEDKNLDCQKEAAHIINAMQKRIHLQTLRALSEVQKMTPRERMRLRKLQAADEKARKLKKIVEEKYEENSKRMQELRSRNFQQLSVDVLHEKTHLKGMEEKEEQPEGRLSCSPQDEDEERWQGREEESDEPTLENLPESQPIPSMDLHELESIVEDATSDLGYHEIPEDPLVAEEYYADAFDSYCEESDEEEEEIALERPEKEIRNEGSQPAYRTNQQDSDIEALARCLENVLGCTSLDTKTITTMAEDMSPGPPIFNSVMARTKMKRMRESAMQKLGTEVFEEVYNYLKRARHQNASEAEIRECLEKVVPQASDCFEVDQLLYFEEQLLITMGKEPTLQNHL
Chain of Vascular endothelial growth factor receptor 3 (Homo sapiens) (P35916 whole entry): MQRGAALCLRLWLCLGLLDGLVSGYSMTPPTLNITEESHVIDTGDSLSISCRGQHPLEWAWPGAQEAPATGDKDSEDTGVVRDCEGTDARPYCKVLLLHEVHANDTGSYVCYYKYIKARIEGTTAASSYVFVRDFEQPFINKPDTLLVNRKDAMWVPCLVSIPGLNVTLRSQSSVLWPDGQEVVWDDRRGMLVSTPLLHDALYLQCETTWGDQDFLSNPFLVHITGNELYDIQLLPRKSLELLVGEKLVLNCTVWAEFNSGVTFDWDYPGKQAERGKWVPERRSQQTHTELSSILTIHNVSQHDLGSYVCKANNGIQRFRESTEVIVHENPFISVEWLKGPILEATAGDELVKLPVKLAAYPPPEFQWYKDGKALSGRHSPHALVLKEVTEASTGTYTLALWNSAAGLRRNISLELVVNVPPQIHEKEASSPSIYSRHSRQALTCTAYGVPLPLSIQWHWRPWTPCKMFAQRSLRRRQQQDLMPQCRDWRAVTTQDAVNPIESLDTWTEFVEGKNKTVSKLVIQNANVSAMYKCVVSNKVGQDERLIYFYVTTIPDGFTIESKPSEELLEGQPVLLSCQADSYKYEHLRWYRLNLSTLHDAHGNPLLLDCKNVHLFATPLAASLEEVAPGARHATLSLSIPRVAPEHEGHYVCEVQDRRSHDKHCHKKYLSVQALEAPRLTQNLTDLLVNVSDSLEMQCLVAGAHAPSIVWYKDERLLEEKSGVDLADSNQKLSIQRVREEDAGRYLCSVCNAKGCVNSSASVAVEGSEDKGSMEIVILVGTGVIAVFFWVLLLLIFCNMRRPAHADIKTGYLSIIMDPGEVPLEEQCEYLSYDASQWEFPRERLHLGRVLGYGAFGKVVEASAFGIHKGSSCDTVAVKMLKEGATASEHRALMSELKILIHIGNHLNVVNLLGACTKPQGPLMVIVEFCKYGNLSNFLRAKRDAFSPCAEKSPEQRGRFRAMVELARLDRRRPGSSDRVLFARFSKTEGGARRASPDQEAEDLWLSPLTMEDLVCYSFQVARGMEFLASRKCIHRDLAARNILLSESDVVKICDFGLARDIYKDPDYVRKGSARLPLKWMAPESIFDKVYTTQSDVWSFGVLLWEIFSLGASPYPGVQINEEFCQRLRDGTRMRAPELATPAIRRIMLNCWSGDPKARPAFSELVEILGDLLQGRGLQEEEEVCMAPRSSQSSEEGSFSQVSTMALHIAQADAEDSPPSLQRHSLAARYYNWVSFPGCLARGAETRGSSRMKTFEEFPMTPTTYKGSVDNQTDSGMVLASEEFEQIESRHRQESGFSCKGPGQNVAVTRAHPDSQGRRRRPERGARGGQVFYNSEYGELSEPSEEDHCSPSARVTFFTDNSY
Chain of Beta-1 adrenergic receptor (Homo sapiens) (P08588 whole entry, looked up): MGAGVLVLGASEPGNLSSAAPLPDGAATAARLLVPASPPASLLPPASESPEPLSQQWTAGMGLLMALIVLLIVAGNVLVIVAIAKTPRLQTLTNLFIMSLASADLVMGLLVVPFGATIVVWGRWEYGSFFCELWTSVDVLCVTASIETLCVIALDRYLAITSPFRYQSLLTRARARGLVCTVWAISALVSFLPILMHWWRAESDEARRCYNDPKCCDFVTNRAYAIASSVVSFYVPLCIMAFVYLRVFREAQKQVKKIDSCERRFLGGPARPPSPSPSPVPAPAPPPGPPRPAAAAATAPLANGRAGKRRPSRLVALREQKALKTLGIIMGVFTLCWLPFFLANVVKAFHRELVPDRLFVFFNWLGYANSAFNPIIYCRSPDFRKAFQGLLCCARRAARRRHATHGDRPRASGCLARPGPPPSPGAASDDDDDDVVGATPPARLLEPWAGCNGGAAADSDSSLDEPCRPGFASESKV
Chain of Receptor tyrosine-protein kinase erbB-3 (Homo sapiens) (P21860 whole entry): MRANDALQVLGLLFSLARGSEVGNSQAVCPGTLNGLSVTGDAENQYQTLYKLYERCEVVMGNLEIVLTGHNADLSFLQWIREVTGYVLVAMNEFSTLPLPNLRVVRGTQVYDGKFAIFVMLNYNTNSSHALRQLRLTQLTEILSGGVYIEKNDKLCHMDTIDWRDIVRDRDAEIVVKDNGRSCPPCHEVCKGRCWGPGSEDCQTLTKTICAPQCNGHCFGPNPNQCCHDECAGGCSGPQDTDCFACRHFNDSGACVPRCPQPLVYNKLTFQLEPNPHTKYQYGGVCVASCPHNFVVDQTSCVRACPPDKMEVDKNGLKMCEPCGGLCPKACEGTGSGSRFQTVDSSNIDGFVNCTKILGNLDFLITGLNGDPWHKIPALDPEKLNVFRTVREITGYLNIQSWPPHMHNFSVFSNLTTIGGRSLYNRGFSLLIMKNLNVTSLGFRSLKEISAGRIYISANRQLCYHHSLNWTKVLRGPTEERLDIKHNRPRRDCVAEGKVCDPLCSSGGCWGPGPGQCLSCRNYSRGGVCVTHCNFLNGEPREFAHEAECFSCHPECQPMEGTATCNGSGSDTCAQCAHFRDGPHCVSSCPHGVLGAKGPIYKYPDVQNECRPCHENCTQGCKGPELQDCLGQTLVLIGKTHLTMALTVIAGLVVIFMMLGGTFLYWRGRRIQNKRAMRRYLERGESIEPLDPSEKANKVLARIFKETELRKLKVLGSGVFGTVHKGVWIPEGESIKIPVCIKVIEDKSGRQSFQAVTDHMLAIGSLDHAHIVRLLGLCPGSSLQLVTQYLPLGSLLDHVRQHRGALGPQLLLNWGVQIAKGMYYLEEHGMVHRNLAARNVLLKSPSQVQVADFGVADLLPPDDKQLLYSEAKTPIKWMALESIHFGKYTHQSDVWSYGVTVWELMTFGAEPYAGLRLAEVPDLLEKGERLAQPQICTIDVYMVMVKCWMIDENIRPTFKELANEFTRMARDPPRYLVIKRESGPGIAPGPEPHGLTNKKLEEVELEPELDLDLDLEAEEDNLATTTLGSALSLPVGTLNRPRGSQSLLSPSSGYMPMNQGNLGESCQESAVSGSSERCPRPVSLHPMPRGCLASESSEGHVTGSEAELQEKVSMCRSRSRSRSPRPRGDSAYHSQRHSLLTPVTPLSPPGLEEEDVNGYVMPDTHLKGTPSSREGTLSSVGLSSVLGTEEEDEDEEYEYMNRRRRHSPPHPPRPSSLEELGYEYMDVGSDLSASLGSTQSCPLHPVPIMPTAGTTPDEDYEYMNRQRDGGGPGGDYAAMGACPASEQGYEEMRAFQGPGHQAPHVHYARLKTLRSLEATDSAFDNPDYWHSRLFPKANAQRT

For `COc1ccc2cc(OCC3(C(=O)O)CN(C(=O)c4ccc(F)cc4)C3)ccc2c1` [PF-04418948], the Ki (Thromboxane A2 receptor) was > 10 µM (not active), the inhibition [1] was -8% and the inhibition [2] was -6%. It also gave an inhibition [3] of 9%, an inhibition [4] of 2% and an inhibition [5] of -6%. For the same compound, the inhibition [6] was 11%, the inhibition [7] was 1% and the inhibition [8] was -10%. For the same compound, the inhibition [9] was 3%, the residual activity [10] was 94% and the residual activity [11] was 79%. The residual activity [12] was 89%, the residual activity [13] was 91% and the residual activity [14] was 75%. It also gave a residual activity [15] of 67%, a residual activity [16] of 87% and a residual activity [17] of 93%. The residual activity [18] was 82%, the residual activity [19] was 94% and the residual activity [20] was 79%. The residual activity [21] was 86%, the residual activity [22] was 93% and the residual activity [23] was 94%. It also gave a residual activity [24] of 94%, a residual activity [25] of 90% and a residual activity [26] of 75%. It also gave a residual activity [27] of 85%, a residual activity [28] of 64% and a residual activity [29] of 97%. For the same compound, the inhibition [30] was 1.07% and the inhibition [31] was 14%.
